Results from patent US20240374744A1, “PROTEIN AND PHARMACEUTICAL COMPOSITION COMPRISING SAME FOR PREVENTION OR TREATMENT OF CANCER” (CELLEMEDY CO., LTD, priority 2021, published 2024).

Legend:
Format in all cases: cell-based
Normal lung cells IMR-90 = test: CCK (cell counting kit) cytotoxicity assay, IMR-90; details: IMR-90 cell; anticancer drug alone vs protein nanoparticle conjugate, from IC50
Experimental: (§1) Normal lung cells WI-38 and IMR-90, and normal colon cells CCD-18co were grown in 96-well microplate with 1×10^4 cells/well for 36 hours, and the cytotoxicity when only anticancer drug was added and the cytotoxicity when protein nanoparticle-anticancer drug conjugate was added were compared.

[1] = test system: normal colon cells CCD-18co; test: CCK (cell counting kit) cytotoxicity assay, CCD-18co; details: CCD-18co cell; anticancer drug alone vs protein nanoparticle conjugate, from IC50
Experimental: as §1

Normal lung cells WI-38 = test: CCK (cell counting kit) cytotoxicity assay, WI-38; details: WI-38 cell; anticancer drug alone vs protein nanoparticle conjugate, from IC50
Experimental: as §1

Structure (SMILES)	drug toxicity reduction (DTR) (Normal lung cells IMR-90)	drug toxicity reduction (DTR) [1]	drug toxicity reduction (DTR) (Normal lung cells WI-38)
COc1cccc2c1C(=O)c1c(O)c3c(c(O)c1C2=O)C[C@@](O)(C(=O)CO)C[C@@H]3O[C@H]1C[C@H](N)[C@H](O)[C@H](C)O1 [DOX, doxorubicin]	316	91	263
Nc1ccn([C@@H]2O[C@H](CO)[C@@H](O)C2(F)F)c(=O)n1 [GEM, gemcitabine]	7244	8913	3162
